One data set has as its system TK090. Briefly: Complementation of NAD+ auxotrophic strain. The class given is cell-based, E. coli. To be noted: for concentration needed to support growth as NAD+ source: TK090[pSsuABC, pPnGGT*]; for growth with compound as sole source of NAD+: spent MS minimal medium, 25 μM N-picolyl-sulfobutyramide, different plasmid combinations. The method, then: FIG. 27. Utilization of NAD^+ precursors. NAD^+ auxotrophic strain TK090 [pSsuABC; pPnGGT*] was grown in MS minimal medium containing 0.5% glucose, 1 mM MgSO4, 0.4 mM leucine, 0.5 mM IPTG, 100 ng ml^−1 aTc and varying concentrations of either 3-picolylamine (a) or nicotinic acid (b). […] Dots represent the average of three independent measurements with standard deviations shown as error bars.
Selection experiments with NAD^+ auxotrophic strains are prone to contamination with unwanted NAD^+ sources and therefore demand special preparation of the precultures and medium. For the precultures, all tested strains were incubated overnight in MS minimal medium supplemented with 0.5% glucose, 1 mM MgSO4, 0.4 mM L-leucine and 5 μM nicotinic acid. To guarantee complete consumption of nicotinic acid, precultures were then diluted 100-fold in MS minimal medium supplemented only with 0.5% glucose, 1 mM MgSO4 and 0.4 mM L-leucine, but no additional NAD^+ source. Following an overnight incubation period, NAD^+-deprived cells were washed twice in the same medium and used for growth assays.
To prepare the medium for final growth assays, MS minimal medium was supplemented with 0.5% glucose, 1 mM MgSO4, 0.4 mM L-leucine and 25 μM N-picolyl-sulfobutyramide (see below for description of synthesis). To remove all NAD^+ contaminants, the medium was inoculated overnight with strain TK090, which can utilize free NAD^+ precursors, but cannot take up or hydrolyze N-picolyl-sulfobutyramide due to the absence of SsuABC and PnGGT*. After an overnight incubation period, cells were separated from the medium by centrifugation and the supernatant was filtered using a Minisart 0.22 μm High Flow Syringe Filter (Sartorius, Goettingen, Germany). The filtered supernatant was then supplemented with the respective antibiotics and inducers and used for growth assays.

Another data set has as its system BW25113 ΔleuB (TK080). Nature of the data set: Growth on different sulfur sources. As to conditions: 1 mM sulfur source, minimal medium, 0.5% glucose, 0.4 mM leucine. The class given is cell-based, E. coli. The method, then:
FIG. 21: Growth of E. coli on sulfonates. Strains TK080 (a; BW25113 ΔleuB) and TK082 (b; BW25113 ΔleuB ΔssuEADCB ΔtauD) were grown in MS minimal medium supplemented with 0.5% glucose, 0.4 mM L-leucine, 1 mM MgCl2 and 1 mM of a sulfur source. TK080 was able to use the majority of the tested sulfur sources with a similar efficiency as sulfate. […] Dots represent the average of three independent measurements with standard deviations shown as error bars.
For the experiments relating to the sulfonate based synthetic transport system, unless stated otherwise, growth experiments in selective medium were carried out in sulfur free MS minimal medium (4 mM citric acid, 1 mM MgCl2, 20 mM NH4Cl, 50 mM KH2PO4 and 1×NTA mix (10 μM nitrilotriacetic acid, 3 μM CaCl2, 3 μM FeCl3, 1 μM MnCl2, 0.3 μM ZnCl2, 0.3 μM H3B3, 0.3 μM CrC3, 0.3 μM COCl2, 0.3 μM CuCl2, 0.3 μM Ni2C, 0.3 μM Na2MoO4, 0.3 μM Na2SeO3)) supplemented with 0.5% glucose. MgSO4 (1 mM), MgCl2 (1 mM), L-leucine (0.4 mM), IPTG (0.5 mM), aTc (100 ng mL-1), nicotinic acid (various concentrations), 3-picolylamine (various concentrations) and sulfonates (various concentrations) as indicated in the text. […] Synthesis schemes for sulfobutanoyl-p-nitroanilide and other sulfonates are given below.
The sulfonate transporters SsuABC and TauABC transport a wide variety of sulfonate compounds (Eichhorn et al., 2000) and can thus be exploited for the present synthetic transport system. As such, the uptake and utilization of sulfobutanoyl-L-leucine was assessed. The leucine auxotrophic strain BW25113 ΔleuB was tested for growth in minimal medium supplemented with 0.5% glucose, 0.4 mM leucine, 0.4 mM isoleucine and 1 mM of a sulfur-containing compound as the sole sulfur source.

The next data set concerns TK088[pSsuABC]. Nature of the data set: Growth of histidine auxotrophic strain in liquid medium. The class given is cell-based, E. coli. As to conditions: liquid MS minimal medium, 0.5 mM compound, pACT3 versus pPnGGT*. The protocol:
FIG. 22: Identification of GGT* activity and refactoring of the ssuABC operon. (a) Cell free extracts of strain TK018 synthesizing either EcGGT, EcGGT D433N, PnGGT or PnGGT D405N were incubated with 2 mM of the substrates γ-glutamyl-p-nitroanilide or sulfobutanoyl-p-nitroanilide (5), respectively. The release of 4-nitroaniline was quantified by measuring the absorption at 410 nm. (b) Plasmid map of the three-dimensional RBS-library for refactoring the ssuABC operon using 144 RBS variants per gene. RBS library sequences are underlined. Arrows point towards the final RBS sequences observed in plasmid pSsuABC. […] (e) Growth of strain TK088[pSsuABC]transformed with the empty vector pACT3 (black circles) or plasmid pPnGGT* (white circles) in liquid MS minimal medium supplemented with 0.5% glucose, 1 mM MgSO4, 0.4 mM L-leucine, 0.5 mM IPTG, 100 ng ml^−1 aTc and 0.5 mM sulfobutanoyl-L-histidine. Bars and dots from panels (a), (d) and (e) represent the average of three independent measurements with standard deviations shown as error bars. […]

Another data set relates to TK082. Nature of the data set: In vivo hydrolysis of sulfobutanoyl-p-nitroanilide and sulfobutanoyl-AMC. The class given is cell-based, E. coli. The method, then: Strain TK082 was transformed with plasmids as indicated in the text and grown at 37° C. in MS minimal medium supplemented with 0.5% glucose, 1 mM MgSO4 and 0.4 mM L-leucine to an OD600 of 0.5. At that stage, the synthesis of PnGGT* and/or SsuABC was induced for 2 hours by adding 0.5 mM IPTG and 100 ng mL^−1 aTc. Following this synthesis period, cells were washed in the same medium to remove proteins that had been released into the medium by cell lysis. After an additional centrifugation step, cells were resuspended in MS minimal medium supplemented with 0.5% glucose, 1 mM MgSO4, 0.4 mM L-leucine, 0.5 mM IPTG, 100 ng mL^−1 aTc and 0.5 mM sulfobutanoyl-p-nitroanilide or sulfobutanoyl-AMC (see below for description of synthesis) and incubated in a Tecan Infinite 200 Pro plate reader at 37° C. To monitor cell density and the release of 4-nitroaniline, absorbance was constantly measured at 600 nm and 410 nm. The release of AMC was monitored by measuring the fluorescence at λex=350 nm and λem=450 nm. To determine the influence of competition for the sulfonate transporter SsuABC, different concentrations of pentanesulfonate (Sigma Aldrich) were added to the medium.

Substrate in data set [1]: CC(C)C[C@H](NC(=O)CCCS(=O)(=O)O)C(=O)O
Nature of the data set: purified protein, by the assay type. To be noted: other: kinetic studies cited in Example 11, conditions not given.

As to `O=C(O)c1cccnc1` [nicotinic acid], the “concentration needed to support growth as NAD+ source” value in the data set on TK090 (MS minimal medium) is “sub-micromolar concentrations”. Take `O=C(CCCS(=O)(=O)[O-])NCc1cccnc1.[Na+]` [N-picolyl-sulfobutyramide, N-(3-Pyridinylmethyl)sulfobutyramide sodium salt]: the “growth with compound as sole source of NAD+” value with TK090 was “only observed when both the sulfonate transporter SsuABC and PnGGT* were synthesized simultaneously”.

For the molecule `O=C(CCCS(=O)(=O)O)N[C@@H](Cc1c[nH]cn1)C(=O)O` [sulfobutanoyl-L-histidine], the “growth with compound as sole sulfur source” value in the data set on BW25113 ΔleuB (TK080) was “comparable efficiencies”. The “growth with compound as sole histidine source” value is “Entirely equivalent results” with TK088[pSsuABC]; “grew significantly faster and to higher cell densities” with TK088[pSsuABC] (listed as sulfubutanoyl-L-histidine). `Cc1cc(=O)oc2cc(NC(=O)CCCS(=O)(=O)O)ccc12` [sulfobutanoyl-AMC, N-(4-Methyl-2-oxo-2H-1-benzopyran-7-yl)sulfobutyramide]: the “in vivo release of AMC from the compound” value in the data set on TK082 (0.5 mM compound, different plasmid combinations) is recorded as “some release of the dye was detected in a strain expressing only PnGGT*”. Also, the “growth with compound as sole sulfur source” value in the data set with BW25113 ΔleuB (TK080) is reported as “utilized with a lower efficiency”. As for `NCc1cccnc1` [3-picolylamine], in the data set on TK090 (MS minimal medium), the “concentration necessary to complement the NAD+ auxotrophy compared to nicotinic acid” value fell in the range of 500 to 1000 fold and the “concentration needed to support growth as NAD+ source” value was “above 50 μM”. Further, the “growth with compound as sole source of NAD+” value with TK090 is given as “no growth was observed”. In the case of `CCCCCS(=O)(=O)O` [pentanesulfonate, reference compound], in the data set on TK082 (TK082[pSsuABC, pPnGGT*]), the “effect of competitor on release of 4-nitroaniline from 0.5 mM sulfobutanoyl-p-nitroanilide” value was “sufficient to slow down the release of 4-nitroaniline” and the “effect of competitor on release of AMC from 0.5 mM sulfobutanoyl-AMC” value is listed as “sufficient to slow down the release of AMC in the presence of SsuABC”.

B1: PnGGT ΔN24 D405N (Pseudomonas nitroreducens; D405N) (protein)
chain: MRGSHHHHHHGSACELTLDGGAVAAPDQYGAKVAAEILKKGGNAVDAAVATAFTLAVTYPEAGNIGGGGFMTLYVDGKPYFLDYREIAPKAATKTMYLNEKGEVIENLSLVGAKAAGVPGTVMGLWEAHQRFGKLKWSELLTPAIGYAQTGFKVADQQYQYRQDAIALFNGKTNFGDYFGTMKPGEVFKQPELAKTLERIADKGPDDFYKGETAKLLIAQMKQDGGLITSDDLVDYQAKWREPMRIDWQGNTLYTAPLPSSGGIALAQLIGIKEQRAADFKGVELNSAKYIHLLSEIEKRVFADRADYLGDPQFSKVPVAQLTDPKYIAKRAGEVNPDAISATEKVRPGLEPHQTTHFSIVDKDGNAVSNTYTLNWDFGSGVVVKGAGFLLNDEMDNFSSKPGVANAFGVVGSDANAIEPGKRMLSSMSPSIVTRDGHVSLVLGTPGGSRIFTSIFQVLNNVYDFHLPLEKAVAAQRVHHQLLPKDTIYYDAYAPLPGKVADELKAMGYTLEDQGWNMGDIQAIRVNGKALETASDPRGRGVGMVVKP
What is called Km is the concentration of substrate that gives half-maximal velocity. With B1, the Km in data set [1] is 734 µM.
